Measured values: PMC5917001, “Counter-ion effect on antistaphylococcal activity and cytotoxicity of selected antimicrobial peptides” (Amino Acids, 2018)
Where no end group is shown, it is not given here.

Assays:
[1] = test system: human red blood cells (RBCs)
Protocol: Fresh human red blood cells (RBCs) with EDTA as anticoagulant were rinsed three times with phosphate-buffer saline (PBS) by centrifugation at 800 × g for 10 min and resuspended in PBS. […] Then, the stock solution of RBCs was added to reach a final volume of 100 µL with 4% concentration of erythrocytes (v/v). The control wells for 0% hemolysis and 100% hemolysis consisted of RBCs suspended in PBS and 1% of Triton X–100, respectively. Subsequently, the plates were incubated for 60 min at 37 °C and then centrifuged at 800 × g for 10 min at 4 °C (Sorvall ST 16R Centrifuge, Thermo Scientific). After centrifugation, the supernatant was carefully resuspended to new microtiter plates and the release of hemoglobin was monitored by measurement of absorbance at 540 nm (Multiskan™ GO Microplate Spectrophotometer, Thermo Scientific). All experiments were conducted in triplicate.

[2] = test system: S. aureus (29): reference (5) and clinical (24) strains; details: for Mean value of MIC: mean over 29 S. aureus strains (Table 5); for Mean MIC values: mean over 29 S. aureus strains, as repeated in Table 6
Protocol: Microbiological assays were performed using reference and clinical strains of Staphylococcus aureus. Minimal inhibitory concentrations (MIC) were determined by broth microdilution method on 96-well polystyrene plates according to Clinical and Laboratory Standards Institute (CLSI) recommendations [Clinical and Laboratory Standards Institute (CLSI) [2012]]. […] All plates were incubated for 18 h at 37 °C. […] Reference strains of S. aureus: ATCC 6538, ATCC 6538/P, ATCC 9144, ATCC 12598, and ATCC 25923 were obtained from the Polish Collection of Microorganisms (PCM, Polish Academy of Sciences, Wrocław), whereas 24 clinical strains were isolated from the patients of the Clinic of Dermatology, Venereology and Allergology (Medical University of Gdańsk). Nine strains were characterized as methicillin-resistant (MRSA). Preliminary identification and detection was conducted on the ChromID MRSA/ChromID S. aureus biplate (bioMérieux) for the simultaneous detection of S. aureus and methicillin-resistant S. aureus (MRSA). All experiments were conducted at least in triplicate.
To asses an overall activity of peptides, the mean MIC values were calculated.

[3] = prolonged storage; in words; ref Nayan Desai [2013]; cited from earlier work
[4] = test system: S. aureus ATCC 12598; type: cell-based, Staphylococcus aureus; details: ATCC 12598, reference strain; broth microdilution, 0.5 × 10^5 CFU/mL, 18 h, 37 °C, at least triplicate
Protocol: (§1) Microbiological assays were performed using reference and clinical strains of Staphylococcus aureus. Minimal inhibitory concentrations (MIC) were determined by broth microdilution method on 96-well polystyrene plates according to Clinical and Laboratory Standards Institute (CLSI) recommendations [Clinical and Laboratory Standards Institute (CLSI) [2012]]. For this purpose, the initial inoculums of 0.5 × 10^5 CFU/mL of bacteria were exposed to a range of concentrations of the peptides (0.5–256 µg/mL). All plates were incubated for 18 h at 37 °C. MIC was taken as the lowest concentration of the compound at which the growth of bacteria was not observed. Reference strains of S. aureus: ATCC 6538, ATCC 6538/P, ATCC 9144, ATCC 12598, and ATCC 25923 were obtained from the Polish Collection of Microorganisms (PCM, Polish Academy of Sciences, Wrocław), whereas 24 clinical strains were isolated from the patients of the Clinic of Dermatology, Venereology and Allergology (Medical University of Gdańsk). Nine strains were characterized as methicillin-resistant (MRSA). Preliminary identification and detection was conducted on the ChromID MRSA/ChromID S. aureus biplate (bioMérieux) for the simultaneous detection of S. aureus and methicillin-resistant S. aureus (MRSA). All experiments were conducted at least in triplicate.

[5] = test system: S. aureus 002N; type: cell-based, Staphylococcus aureus; details: clinical strain, broth microdilution, 0.5 × 10^5 CFU/mL, 18 h, 37 °C, at least triplicate
Protocol: as §1

[6] = test system: S. aureus 033N; type: cell-based, Staphylococcus aureus; details: clinical strain, broth microdilution, 0.5 × 10^5 CFU/mL, 18 h, 37 °C, at least triplicate
Protocol: as §1

[7] = test system: S. aureus 039N; type: cell-based, Staphylococcus aureus; details: clinical strain, broth microdilution, 0.5 × 10^5 CFU/mL, 18 h, 37 °C, at least triplicate
Protocol: as §1

[8] = test system: S. aureus K19N; type: cell-based, Staphylococcus aureus; details: clinical strain, broth microdilution, 0.5 × 10^5 CFU/mL, 18 h, 37 °C, at least triplicate
Protocol: as §1

[9] = test system: S. aureus 043SC (MRSA); type: cell-based, Staphylococcus aureus; details: clinical strain, broth microdilution, 0.5 × 10^5 CFU/mL, 18 h, 37 °C, at least triplicate
Protocol: as §1

[10] = test system: S. aureus 013S; type: cell-based, Staphylococcus aureus; details: clinical strain, broth microdilution, 0.5 × 10^5 CFU/mL, 18 h, 37 °C, at least triplicate
Protocol: as §1

[11] = test system: S. aureus 053N; type: cell-based, Staphylococcus aureus; details: clinical strain, broth microdilution, 0.5 × 10^5 CFU/mL, 18 h, 37 °C, at least triplicate
Protocol: as §1

[12] = test system: S. aureus 002S; type: cell-based, Staphylococcus aureus; details: clinical strain, broth microdilution, 0.5 × 10^5 CFU/mL, 18 h, 37 °C, at least triplicate
Protocol: as §1

[13] = test system: S. aureus K50S; type: cell-based, Staphylococcus aureus; details: clinical strain, broth microdilution, 0.5 × 10^5 CFU/mL, 18 h, 37 °C, at least triplicate
Protocol: as §1

[14] = test system: S. aureus 048S; type: cell-based, Staphylococcus aureus; details: clinical strain, broth microdilution, 0.5 × 10^5 CFU/mL, 18 h, 37 °C, at least triplicate
Protocol: as §1

[15] = test system: S. aureus 024N (MRSA); type: cell-based, Staphylococcus aureus; details: clinical strain, broth microdilution, 0.5 × 10^5 CFU/mL, 18 h, 37 °C, at least triplicate
Protocol: as §1

[16] = test system: S. aureus 005S; type: cell-based, Staphylococcus aureus; details: clinical strain, broth microdilution, 0.5 × 10^5 CFU/mL, 18 h, 37 °C, at least triplicate
Protocol: as §1

[17] = test system: S. aureus ATCC 6538; type: cell-based, Staphylococcus aureus; details: ATCC 6538, reference strain; broth microdilution, 0.5 × 10^5 CFU/mL, 18 h, 37 °C, at least triplicate
Protocol: as §1

[18] = test system: S. aureus ATCC 9144; type: cell-based, Staphylococcus aureus; details: ATCC 9144, reference strain; broth microdilution, 0.5 × 10^5 CFU/mL, 18 h, 37 °C, at least triplicate
Protocol: as §1

[19] = test system: S. aureus ATCC 6538/P; type: cell-based, Staphylococcus aureus; details: reference strain, broth microdilution, 0.5 × 10^5 CFU/mL, 18 h, 37 °C, at least triplicate
Protocol: as §1

[20] = test system: S. aureus ATCC 25923; type: cell-based, Staphylococcus aureus; details: ATCC 25923, reference strain; broth microdilution, 0.5 × 10^5 CFU/mL, 18 h, 37 °C, at least triplicate
Protocol: as §1

[21] = test system: S. aureus 004N (MRSA); type: cell-based, Staphylococcus aureus; details: clinical strain, broth microdilution, 0.5 × 10^5 CFU/mL, 18 h, 37 °C, at least triplicate
Protocol: as §1

[22] = test system: S. aureus 051N (MRSA); type: cell-based, Staphylococcus aureus; details: clinical strain, broth microdilution, 0.5 × 10^5 CFU/mL, 18 h, 37 °C, at least triplicate
Protocol: as §1

[23] = test system: S. aureus 017S (MRSA); type: cell-based, Staphylococcus aureus; details: clinical strain, broth microdilution, 0.5 × 10^5 CFU/mL, 18 h, 37 °C, at least triplicate
Protocol: as §1

[24] = test system: S. aureus 017N (MRSA); type: cell-based, Staphylococcus aureus; details: clinical strain, broth microdilution, 0.5 × 10^5 CFU/mL, 18 h, 37 °C, at least triplicate
Protocol: as §1

[25] = test system: S. aureus 045N; type: cell-based, Staphylococcus aureus; details: clinical strain, broth microdilution, 0.5 × 10^5 CFU/mL, 18 h, 37 °C, at least triplicate
Protocol: as §1

[26] = test system: S. aureus 030N; type: cell-based, Staphylococcus aureus; details: clinical strain, broth microdilution, 0.5 × 10^5 CFU/mL, 18 h, 37 °C, at least triplicate
Protocol: as §1

[27] = test system: S. aureus 015N (MRSA); type: cell-based, Staphylococcus aureus; details: clinical strain, broth microdilution, 0.5 × 10^5 CFU/mL, 18 h, 37 °C, at least triplicate
Protocol: as §1

[28] = test system: S. aureus 051S; type: cell-based, Staphylococcus aureus; details: clinical strain, broth microdilution, 0.5 × 10^5 CFU/mL, 18 h, 37 °C, at least triplicate
Protocol: as §1

[29] = test system: S. aureus 060S; type: cell-based, Staphylococcus aureus; details: clinical strain, broth microdilution, 0.5 × 10^5 CFU/mL, 18 h, 37 °C, at least triplicate
Protocol: as §1

[30] = test system: S. aureus K46N; type: cell-based, Staphylococcus aureus; details: clinical strain, broth microdilution, 0.5 × 10^5 CFU/mL, 18 h, 37 °C, at least triplicate
Protocol: as §1

[31] = test system: S. aureus 001N (MRSA); type: cell-based, Staphylococcus aureus; details: clinical strain, broth microdilution, 0.5 × 10^5 CFU/mL, 18 h, 37 °C, at least triplicate
Protocol: as §1

[32] = test system: S. aureus 001S (MRSA); type: cell-based, Staphylococcus aureus; details: clinical strain, broth microdilution, 0.5 × 10^5 CFU/mL, 18 h, 37 °C, at least triplicate
Protocol: as §1

Substance | Mean value of MIC [2] [mg/L] | Mean MIC values [2] [mg/L] | MIC [4] [mg/L] | MIC [5] [mg/L] | MIC [6] [mg/L] | MIC [7] [mg/L] | MIC [8] [mg/L] | MIC [9] [mg/L] | MIC [10] | MIC [11] [mg/L] | MIC [12] [mg/L] | MIC [13] [mg/L] | MIC [14] [mg/L] | MIC [15] | MIC [16] | MIC [17] | MIC [18] [mg/L] | MIC [19] [mg/L] | MIC [20] [mg/L] | MIC [21] [mg/L] | further results
GIGKFLKKAKKFGKAFVKILKK-NH2 [Pexiganan AcO^−] | 7.1 |  |  |  |  |  |  |  |  |  |  |  |  |  |  |  |  |  |  |  | hemolysis of RBCs at the mean MIC value ([1]; human RBCs, at the mean MIC value, in words): ignorable; stability of the salt form [3]: the most stable even during prolonged storage
FLPLIGRVLSGIL-NH2 [Temporin A] |  |  |  |  |  |  |  |  |  |  |  |  |  |  |  |  |  |  |  |  | hemolysis ([1]; at 256 µg/mL, human RBCs 4% (v/v) in PBS, 60 min, 37 °C, absorbance 540 nm, 100% = 1% Triton X-100, triplicate): ≤ 4%; hemolysis of RBCs ([1]; human RBCs, in words): almost undetectable; MIC range among strains ([2]; range over all S. aureus strains and the salts of the peptide): 2 to 8 mg/L
GLFDVIKKVASVIGGL-NH2 [Citropin 1.1 Cl^−] | 10.0 | 10.0 | 8 | 16 | 16 | 16 | 16 | 8 | 2 mg/L | 16 | 8 | 1 | 16 | 2 mg/L | 2 mg/L | 4 mg/L | 16 | 8 | 16 | 8 | MIC [22]: 8 mg/L; MIC [23]: 4 mg/L; MIC [24]: 4 mg/L; MIC [25]: 16 mg/L; MIC [26]: 16 mg/L; MIC [27]: 8 mg/L; MIC [28]: 4 mg/L; MIC [29]: 2 mg/L; MIC [30]: 16 mg/L; MIC [31]: 16 mg/L; MIC [32]: 16 mg/L
KWKLFKKIGAVLKVL-NH2 [CAMEL AcO^−] | ≤ 2.8 | ≤ 2.8 | 2 | 4 | 4 | 4 | 2 | 4 | ≤ (≤ alone stands for MIC ≤ 0.25 µg/mL) | 4 | 4 | 1 | 4 | ≤ (≤ alone stands for MIC ≤ 0.25 µg/mL) | ≤ (≤ alone stands for MIC ≤ 0.25 µg/mL) | ≤ (≤ alone stands for MIC ≤ 0.25 µg/mL) | 2 | 1 | 8 | 4 | MIC [22]: 2 mg/L; MIC [23]: 2 mg/L; MIC [24]: 2 mg/L; MIC [25]: 4 mg/L; MIC [26]: 4 mg/L; MIC [27]: 4 mg/L; MIC [28]: 2 mg/L; MIC [29]: 1 mg/L; MIC [30]: 4 mg/L; MIC [31]: 2 mg/L; MIC [32]: 4 mg/L
FLPLIGRVLSGIL-NH2 [Temporin A Cl^−] | 5.7 | 5.7 | 4 | 4 | 4 | 4 | 8 | 8 | 4 mg/L | 4 | 4 | 4 | 4 | 4 mg/L | 4 mg/L | 4 mg/L | 8 | 8 | 4 | 4 | MIC [22]: 8 mg/L; MIC [23]: 8 mg/L; MIC [24]: 8 mg/L; MIC [25]: 8 mg/L; MIC [26]: 4 mg/L; MIC [27]: 8 mg/L; MIC [28]: 8 mg/L; MIC [29]: 4 mg/L; MIC [30]: 8 mg/L; MIC [31]: 8 mg/L; MIC [32]: 4 mg/L
